Data reported in paper PMC6707142, “Orthogonal monoterpenoid biosynthesis in yeast constructed on an isomeric substrate” (Nature Communications, 2019).

Legend:
SeCamS = test system: T1, SeCamS; assay: GC-MS of hexane-extracted monoterpene products; assay type: biochemical, Solanum elaeagnifolium; conditions: 20 mM MOPS pH 7.0, 20 mM MgCl2, 0.02 mM MnCl2, 30 °C, 1 h; read-out: KM^app
T1 construct: 6xHis-tagged, E. coli BL21(DE3), Ni-NTA purified
Excerpt: GC-MS of hexane-extracted monoterpene products on SeCamS

SpSabS = biological target: T2, SpSabS (Salvia pomifera, UniProt A6XH06); assay: GC-MS product analysis in vitro; assay type: biochemical; conditions: 20 mM MOPS pH 7.0, 20 mM MgCl2, 0.02 mM MnCl2, 30 °C, 1 h
T2 construct: gene SabS1; 6xHis-tagged, E. coli BL21(DE3), Ni-NTA purified
T2 sequence (A6XH06 29-581): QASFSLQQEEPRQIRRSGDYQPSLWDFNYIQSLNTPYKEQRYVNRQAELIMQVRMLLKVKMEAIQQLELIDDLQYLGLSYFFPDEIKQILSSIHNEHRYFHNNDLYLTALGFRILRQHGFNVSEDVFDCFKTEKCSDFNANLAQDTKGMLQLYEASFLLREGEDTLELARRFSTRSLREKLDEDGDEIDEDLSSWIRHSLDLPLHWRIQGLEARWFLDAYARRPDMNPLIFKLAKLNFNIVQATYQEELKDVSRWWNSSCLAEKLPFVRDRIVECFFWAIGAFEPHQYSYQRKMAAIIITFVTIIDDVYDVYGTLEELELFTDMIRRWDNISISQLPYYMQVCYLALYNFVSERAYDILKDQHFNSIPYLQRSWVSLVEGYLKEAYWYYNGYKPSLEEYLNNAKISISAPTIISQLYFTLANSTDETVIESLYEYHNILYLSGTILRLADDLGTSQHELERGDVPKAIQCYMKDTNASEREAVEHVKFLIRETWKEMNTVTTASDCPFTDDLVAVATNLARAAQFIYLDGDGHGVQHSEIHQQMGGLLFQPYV

PtPinS = biological target: T3, PtPinS (Pinus taeda, UniProt Q84KL3); assay: GC-MS product analysis in vitro; assay type: biochemical; conditions: 20 mM MOPS pH 7.0, 20 mM MgCl2, 0.02 mM MnCl2, 30 °C, 1 h
T3 construct: gene PT30; lacking the transit peptide, 6xHis-tagged, E. coli BL21(DE3), Ni-NTA purified
T3 sequence (Q84KL3 49-628): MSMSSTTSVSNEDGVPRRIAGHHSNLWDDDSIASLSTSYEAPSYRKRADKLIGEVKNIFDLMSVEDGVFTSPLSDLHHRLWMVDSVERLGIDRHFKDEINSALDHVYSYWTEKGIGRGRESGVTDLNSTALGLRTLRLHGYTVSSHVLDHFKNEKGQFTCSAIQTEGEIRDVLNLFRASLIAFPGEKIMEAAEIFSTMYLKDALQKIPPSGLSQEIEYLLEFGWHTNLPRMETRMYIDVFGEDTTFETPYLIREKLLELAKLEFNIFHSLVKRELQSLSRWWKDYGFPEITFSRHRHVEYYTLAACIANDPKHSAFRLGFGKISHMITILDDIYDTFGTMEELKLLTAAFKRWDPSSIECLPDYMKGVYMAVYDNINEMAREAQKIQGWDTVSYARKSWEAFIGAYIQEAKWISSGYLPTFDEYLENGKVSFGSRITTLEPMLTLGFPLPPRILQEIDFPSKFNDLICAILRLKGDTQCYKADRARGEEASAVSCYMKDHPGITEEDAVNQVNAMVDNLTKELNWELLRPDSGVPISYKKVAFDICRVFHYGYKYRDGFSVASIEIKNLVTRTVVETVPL

Compound	Km (SeCamS) [µM]	GC-MS product analysis in vitro (SpSabS)	GC-MS product analysis in vitro (PtPinS)
CC(C)=CCC/C(C)=C/COP(=O)(O)OP(=O)(O)O [GPP]	18.6 ± 2.77		
CC(C)=CCC/C(C)=C\COP(=O)(O)OP(=O)(O)O [NPP]	107 ± 12.5	able to utilize NPP in in vitro assays with bacterially expressed enzymes	able to utilize NPP in in vitro assays with bacterially expressed enzymes
